From patent US8026251B2, “Huperzine A and its derivatives as analgesic agents” (priority 2005, dated 2011)

Assays:
migraine = assay: Treatment of migraine with oral huperzine A (clinical cases); assay type: in vivo, human; conditions: for Time from administration until headache completely disappeared: two tablets (50 μg/tablet) oral on occurrence of migraine
Method: Test 2: Treatment of Migraine with Oral Huperzine A
Drug: Huperzine A Tablet (50 μg/tablet, manufactured by Henan Zhulin Zhongsheng Pharmaceutical Factory.)
Previously treated with bufferin plus, but recently reported that analgesic effects of bufferin plus have weakened.
Methods: On occurrence of migraine pains (8 times within a month), two tablets of huperzine A were administered. Within 20 minutes from administration, the headache has completely disappeared.
Patient: with a medical history of migraine of 2 years. Previously treated with ergotamine, but recently reported that analgesic effects of ergotamine have weakened.
Methods: On occurrence of migraine pains (10 times within a month), two tablets of huperzine A were administered. Within 30 minutes from administration, the headache has completely disappeared.
Patient: with a medical history of migraine of 3 years, occurring at a frequency of about 8-12 times per month.
Methods: One tablet of huperzine A was administered per day orally.

mice = assay: Hot plate test (pain threshold, mice); assay type: in vivo, Kunming mice; conditions: x ± s, n = 10; for Pain thresholds before administration: hot plate 55°C, baseline before administration; for Pain thresholds after administration at 30 min / Pain thresholds after administration at 60 min / Pain thresholds after administration at 120 min / Pain thresholds after administration at 180 min / Pain thresholds after administration at 240 min: hot plate
Method: Kunming mice, grade 2, female, weight of 20±2 g, purchased from the Division of Laboratory Animals, Department of Medical Sciences of Peking University, animal license No.: SCX Jing 2002-0001.
1.2.1 Solutions of huperzine A and huperzine A derivatives in normal saline water were prepared for stomach perfusion of mice.
1.2.2 Solutions of bucinnazine hydrochloride tablets, 30 mg/tablet, manufactured by Tianjin Lisheng Pharmaceutical Factory, approval No.: 0201001, in normal saline solution were prepared at a concentration of 1.5 mg/ml for stomach perfusion of mice.
A water bath was heated to a constant temperature of 55±0.5° C. The bottom of a metal plate was placed in contact with water surface. A mouse was placed on the hot plate and a timer was activated. The timer was deactivated when the mouse began licking its rear feet. The measured time was taken as the pain threshold. The pain threshold was measured two times for each mouse, and those mice whose average pain threshold was less than 30 s were qualified for the experiment.
Qualified mice were randomly divided into groups of 10. At first the pain threshold before administration of a drug was measured. Then drugs were administered as identified in Table 1. The administration volume was 0.2 ml per each 10 g of weight. Normal saline solution was administered to the control group. After administration, the pain threshold was measured at different time periods post-administration. A statistical t-test was calculated of the group interval, based on the test data.

C/C=C1\[C@H]2C=C(C)C[C@]1(N)c1ccc(=O)[nH]c1C2 [Huperzine A, (5R,9R,11E)-5-amino-11-ethylidene-5,6,9,10-tetrahydro-7-methyl-5,9-methanocycloocta[b]pyridin-2(1H)-one]
Time from administration until headache completely disappeared (migraine; Case 1, migraine patient): ≤ 20 min
Analgesic effects over a period of one month (migraine; Case 1, two tablets (50 μg/tablet) oral per attack): Good analgesic effects
Side effects (migraine; Case 1, two tablets (50 μg/tablet) oral per attack, 8 times within a month): Minor side effects
Time from administration until headache completely disappeared (migraine; Case 2, migraine patient): ≤ 30 min
Analgesic effects over a period of one month (migraine; Case 2, two tablets (50 μg/tablet) oral per attack): Good analgesic effects
Side effects (migraine; Case 2, two tablets (50 μg/tablet) oral per attack, 10 times within a month): No side effects
Migraine attacks over the period of 1 month (prevention) (migraine; Case 3, migraine about 8-12 times per month, one tablet (50 μg) per day orally): did not complain of migraine attacks
Effect of long-term administration on migraine attacks (migraine; long-term administration, summary statement): prevents migraine attacks
Effect on migraine in clinical studies (migraine; oral administration, summary statement): alleviates and/or cures migraine
Pain thresholds before administration (mice; group later dosed 0.2 mg/kg by stomach perfusion): 14.2 ± 4.49 s
Pain thresholds before administration (mice; group later dosed 0.4 mg/kg by stomach perfusion): 15.3 ± 2.86 s
Pain thresholds after administration at 30 min (mice; 0.2 mg/kg stomach perfusion): 13.3 ± 4.05 s
Pain thresholds after administration at 60 min (mice; 0.2 mg/kg stomach perfusion): 14.5 ± 5.08 s
Pain thresholds after administration at 120 min (mice; 0.2 mg/kg stomach perfusion): 14.2 ± 5.20 s
Pain thresholds after administration at 180 min (mice; 0.2 mg/kg stomach perfusion): 13.3 ± 3.68 s
Pain thresholds after administration at 240 min (mice; 0.2 mg/kg stomach perfusion): 14.6 ± 2.84 s
Pain thresholds after administration at 30 min (mice; 0.4 mg/kg stomach perfusion): 28.4 ± 8.12 s
Pain thresholds after administration at 60 min (mice; 0.4 mg/kg stomach perfusion): 31.7 ± 10.56 s
Pain thresholds after administration at 120 min (mice; 0.4 mg/kg stomach perfusion): 27.6 ± 8.22 s
Pain thresholds after administration at 180 min (mice; 0.4 mg/kg stomach perfusion): 25.5 ± 8.88 s
Pain thresholds after administration at 240 min (mice; 0.4 mg/kg stomach perfusion): 27.8 ± 5.94 s

C/C=C1\[C@H]2C=C(C)C[C@]1(NC(=O)OCC(C)C)c1ccc(=O)[nH]c1C2 [Example 7, (5R,9R,11E)-5-(2-methylpropoxycarbonylamino)-11-ethylidene-5,6,9,10-tetrahydro-7-methyl-5,9-methanocycloocta[b]pyridin-2(1H)-one]
Pain thresholds before administration (mice; group later dosed 0.6 mg/kg by stomach perfusion): 15.8 ± 3.97 s
Pain thresholds after administration at 30 min (mice; 0.6 mg/kg stomach perfusion): 28.5 ± 2.55 s
Pain thresholds after administration at 60 min (mice; 0.6 mg/kg stomach perfusion): 30.1 ± 6.90 s
Pain thresholds after administration at 120 min (mice; 0.6 mg/kg stomach perfusion): 27.7 ± 4.49 s
Pain thresholds after administration at 180 min (mice; 0.6 mg/kg stomach perfusion): 23.1 ± 2.41 s
